# How the values were obtained:
# Assay type in all cases: in vivo
# [1] = test system: rat hind paw inflamed by Freund's complete adjuvant (FCA); test: Paw pressure test (nociceptive threshold) and inflammatory signs in rat hind paw inflamed by intraplantar Freund's complete adjuvant (FCA)
# Procedure: As experimental model, a unilateral inflammation in rat hind paw, after intraplantar injection of Freund's complete adjuvant (FCA), has been used. The controlateral paw of treated animals, as well as that of untreated animals, were used as controls. Inflammation induced by FCA was evidenced, from 3 h until 24-48 h following injection, by increase in paw volume, hyperthermia and hyperalgesia. The latter was evaluated by an algesyometric test (paw pressure test) capable of evaluating the nociceptive threshold. […] Different doses of oATP always induced a significant, dose-dependent analgesic effect, lasting approximately 12-24 hours, with an effect peak already one hour after the administration.
# (§1) Male Fischer inbred rats (Charles River Italy, Calco, Lecco, Italy) weighing about 250 g were used. Rats, under brief isoflurane anaesthesia received an intraplantar injection of Freund's complete adjuvant (FCA) (0.15 ml) into the right hind paw. This injection induced a unilateral inflammation (from 3 h until 24-48 h following injection) evidenced by increase in paw volume, hyperthermia and hyperalgesia. Hyperalgesia was assessed by an algesyometric test, using an analgesyometer (Ugo Basile, Comerio, Italy) to determine the paw pressure threshold, expressed in grams, namely the pressure required to elicit paw withdrawal, which indicates the nociceptive threshold value. 6 to 8 rats were used for each test. During these trials, animals were treated according to the “standard ethical guidelines” (NIH, 1985).
# Rat inflamed paw received, 24 hrs after FCA injection, intraplantar injection of different doses of oATP (56 to 336 μM), considering time 0 the moment of oATP injection.
# The effect of the maximal oATP dose used was tested in a further set of experiments, for more prolonged times, on rat paws in which the inflammatory process had been induced 48 hrs before (table 2). […]
# noninflamed rat paws = test: Paw pressure test (nociceptive threshold) in noninflamed rat paws
# Procedure: as §1
# Dose/effect curves in noninflamed paws were in fact superimposable (until 120′ after oATP administration) using different concentrations of the molecule. In order to ascertain whether oATP analgesic effect was somewhat related to the activation of inflammatory cells able to produce endogenous β-endorphins, some rats were intravenously injected with fucoidin (10 mg/kg). Fucoidin in fact inhibits leukocyte diapedesis and their accumulation at the inflammation site. Pre-treatment with fucoidin was carried out in both paws, 30′ before FCA injection in one of the rat paws. Pain pressure threshold (PPT) was measured in both noninflamed and inflamed paws, before and after oATP injection (224 μm).
# [2] = test system: ATP content in paw subcutaneous tissue; test: ATP content of rat paw subcutaneous tissue, luminescence method; conditions: for ATP levels: 6 and 12 h following intraplantar oATP (35 μM), FIG. 3
# Procedure: ATP content was assessed in oATP treated rat paws and controlateral untreated ones. Paw subcutaneous tissues were removed from both inflamed and noninflamed paws and rapidly frozen in liquid nitrogen. The frozen tissue samples were weighed, homogenised in phosphate buffer, then treated with K2CO3 and neutralised, finally centrifuged. The supernatant was used for ATP assay, following the luminescence method. We determined in a separate group of rats the modifications in ATP content induced in the plantar tissue by the inflammatory process and/or by oATP treatment. At established times, paw subcutaneous tissues were removed and rapidly frozen in liquid nitrogen, with the aim of blocking any metabolic activity. The frozen tissue was homogenized with a polytron (Kinematica GmbH, Luzern, Switzerland) in ice-cold 6% (w/v) HClO4 to extract nucleotides. The homogenate was centrifuged and the supernatant was used for ATP determination, following the procedure previously described (Marni et al., Transplantation (1988), 46: 830-835). ATP assay was performed by luminescence method (Ferrero et al., Res Commun Chem Path Pharmac 1984; 45: 55-67). We measured ATP levels, in inflamed (by 24 h FCA treatment) and noninflamed paws treated with oATP, at 6 and 12 h following oATP administration, and in controlateral untreated paws. […] ATP content, at 6 and 12 h following intraplantar oATP (35 μM) injection in rat paws: inflamed (by 24 FCA administration) (filled bars), inflamed-oATP treated (hatched bars), noninflamed (open bars), noninflamed-oATP-treated (horizontal line bars). *p<0.005 compared with inflamed untreated paws, Wilcoxon test. Data are expressed as means±S.E.M. of 7 experiments.
compound,measurement,setting,value
"Nc1ncnc2c1ncn2[C@@H]1O[C@H](COP(=O)(O)OP(=O)(O)OP(=O)(O)O)[C@@H](O)[C@H]1O [ATP, reference compound]",nociceptive threshold,"[1]; inflamed paws, after intraplantar injection of ATP (0.9 mmoles)",50±4.1
same,nociceptive threshold,"[1]; inflamed paws, before intraplantar injection of ATP (0.9 mmoles)",65±4.2
same,nociceptive threshold,noninflamed rat paws; 240′ after intraplantar injection of ATP (0.9 mmoles),25±3.0
same,nociceptive threshold,noninflamed rat paws; before intraplantar injection of ATP (0.9 mmoles),120±3.2
"Nc1ncnc2c1ncn2[C@@H](C=O)O[C@@H](C=O)COP(=O)(O)OP(=O)(O)OP(=O)(O)O [oATP, adenosine-5′-triphosphate-2′,3′-dialdehyde]",ATP levels,"[2]; inflamed tissues (24 h FCA), p<0.005 vs inflamed untreated paws",significantly reduced
same,ATP levels,[2]; noninflamed tissues,did not significantly change ATP levels
same,ATP content of paw homogenate,"[2]; oATP treated paws, untreated 1050±90, mean±S.E.M. of 7 experiments",320±22 nmoles/g fresh tissue
same,pain pressure threshold (PPT),"[1]; inflamed paws, fucoidin 10 mg/kg i.v. pre-treatment 30′ before FCA, oATP injection 224 μm, FIG. 1",restored PPT levels
same,duration of analgesic effect,"[1]; intraplantar injection, different doses of oATP",12 to 24 h
same,dose dependence of analgesic effect,[1]; intraplantar oATP 56 to 336 μM,dose-dependent effect
same,analgesic efficacy compared with diclofenac,"[1]; local treatment 3 hours after FCA, oATP 336 μM vs diclofenac 15 mg, FIG. 2",significantly higher than that of diclofenac
same,nociceptive threshold or paw pressure threshold,"[1]; oATP 56 μM intraplantar, 24 hrs after FCA, inflamed paw, 30′",120 ± 2.1 g
same,nociceptive threshold or paw pressure threshold,"[1]; oATP 56 μM intraplantar, 24 hrs after FCA, inflamed paw, 60′",190 ± 2.3 g
same,nociceptive threshold or paw pressure threshold,"[1]; oATP 56 μM intraplantar, 24 hrs after FCA, inflamed paw, 90′",85 ± 2.5 g
same,nociceptive threshold or paw pressure threshold,"[1]; oATP 56 μM intraplantar, 24 hrs after FCA, inflamed paw, 120′",75 ± 1.8 g
same,nociceptive threshold or paw pressure threshold,"[1]; oATP 56 μM intraplantar, 24 hrs after FCA, inflamed paw, 240′",75 ± 2.6 g
same,nociceptive threshold or paw pressure threshold,"[1]; oATP 56 μM intraplantar, 24 hrs after FCA, inflamed paw, time 0′ (untreated inflamed paw, baseline)",60 ± 1.6 g
same,nociceptive threshold or paw pressure threshold,"[1]; oATP 112 μM intraplantar, 24 hrs after FCA, inflamed paw, 30′",140 ± 3.5 g
same,nociceptive threshold or paw pressure threshold,"[1]; oATP 112 μM intraplantar, 24 hrs after FCA, inflamed paw, 60′",180 ± 4.2 g
same,nociceptive threshold or paw pressure threshold,"[1]; oATP 112 μM intraplantar, 24 hrs after FCA, inflamed paw, 90′",150 ± 3.8 g
same,nociceptive threshold or paw pressure threshold,"[1]; oATP 112 μM intraplantar, 24 hrs after FCA, inflamed paw, 120′",100 ± 3.0 g
same,nociceptive threshold or paw pressure threshold,"[1]; oATP 112 μM intraplantar, 24 hrs after FCA, inflamed paw, 240′",105 ± 4.3 g
same,nociceptive threshold or paw pressure threshold,"[1]; oATP 112 μM intraplantar, 24 hrs after FCA, inflamed paw, time 0′ (untreated inflamed paw, baseline)",65 ± 2.0 g
same,nociceptive threshold or paw pressure threshold,"[1]; oATP 224 μM intraplantar, 24 hrs after FCA, inflamed paw, 30′",350 ± 54 g
same,nociceptive threshold or paw pressure threshold,"[1]; oATP 224 μM intraplantar, 24 hrs after FCA, inflamed paw, 60′",400 ± 10.3 g
same,nociceptive threshold or paw pressure threshold,"[1]; oATP 224 μM intraplantar, 24 hrs after FCA, inflamed paw, 90′",300 ± 11.2 g
same,nociceptive threshold or paw pressure threshold,"[1]; oATP 224 μM intraplantar, 24 hrs after FCA, inflamed paw, 120′",185 ± 7.1 g
same,nociceptive threshold or paw pressure threshold,"[1]; oATP 224 μM intraplantar, 24 hrs after FCA, inflamed paw, 240′",180 ± 8.9 g
same,nociceptive threshold or paw pressure threshold,"[1]; oATP 224 μM intraplantar, 24 hrs after FCA, inflamed paw, time 0′ (untreated inflamed paw, baseline)",50 ± 1.5 g
same,nociceptive threshold or paw pressure threshold,"[1]; oATP 336 μM intraplantar, 24 hrs after FCA, inflamed paw, 30′",300 ± 3.4 g
same,nociceptive threshold or paw pressure threshold,"[1]; oATP 336 μM intraplantar, 24 hrs after FCA, inflamed paw, 60′, 750 = cut off",=> 750 *1 g
same,nociceptive threshold or paw pressure threshold,"[1]; oATP 336 μM intraplantar, 24 hrs after FCA, inflamed paw, 90′, 750 = cut off",=> 750 *2 g
same,nociceptive threshold or paw pressure threshold,"[1]; oATP 336 μM intraplantar, 24 hrs after FCA, inflamed paw, 120′",600 ± 20.8 g
same,nociceptive threshold or paw pressure threshold,"[1]; oATP 336 μM intraplantar, 24 hrs after FCA, inflamed paw, 240′",550 ± 18.4 g
same,nociceptive threshold or paw pressure threshold,"[1]; oATP 336 μM intraplantar, 24 hrs after FCA, inflamed paw, time 0′ (untreated inflamed paw, baseline)",60 ± 1.9 g
same,nociceptive threshold or paw pressure threshold,"[1]; oATP 336 μM, inflammatory process induced 48 hrs before, 30′",210 ± 10.7 g
same,nociceptive threshold or paw pressure threshold,"[1]; oATP 336 μM, inflammatory process induced 48 hrs before, 60′",360 ± 25.8 g
same,nociceptive threshold or paw pressure threshold,"[1]; oATP 336 μM, inflammatory process induced 48 hrs before, 90′",395 ± 30.2 g
same,nociceptive threshold or paw pressure threshold,"[1]; oATP 336 μM, inflammatory process induced 48 hrs before, 120′",450 ± 38.1 g
same,nociceptive threshold or paw pressure threshold,"[1]; oATP 336 μM, inflammatory process induced 48 hrs before, 180′",550 ± 45.9 g
same,nociceptive threshold or paw pressure threshold,"[1]; oATP 336 μM, inflammatory process induced 48 hrs before, 240′",690 ± 56.6 g
same,nociceptive threshold or paw pressure threshold,"[1]; oATP 336 μM, inflammatory process induced 48 hrs before, 12 hours",400 ± 29.7 g
same,nociceptive threshold or paw pressure threshold,"[1]; oATP 336 μM, inflammatory process induced 48 hrs before, 24 hours",210 ± 7.2 g
same,nociceptive threshold or paw pressure threshold,"[1]; oATP 336 μM, inflammatory process induced 48 hrs before, 26 hours",190 ± 3.3 g
same,nociceptive threshold or paw pressure threshold,"[1]; oATP 336 μM, inflammatory process induced 48 hrs before, time 0′ (baseline)",55 ± 2.0 g
same,"inflammatory signs (swelling, hyperthermia)",[1]; oATP treated paws compared with untreated paws,reduction of inflammatory signs
same,effect on nociceptive threshold,"noninflamed rat paws; already at the lowest oATP concentration (56 μM), dose/effect curves superimposable until 120′","effective in increasing nociceptive threshold, for a short time"
same,pain pressure threshold (PPT),"noninflamed rat paws; fucoidin 10 mg/kg i.v. pre-treatment, oATP injection 224 μm, FIG. 1",did not significantly change PPT values
